The text below walks through data of patent publication US20260315492A1, “5,6-FUSED BICYCLIC AMIDES AND COMPOSITIONS FOR USE AS 15-PROSTAGLANDIN DEHYDROGENASE MODULATORS” (AMGEN INC., priority 2023, published 2026).

This assay concerns the target T1, human recombinant 15-PGDH (Homo sapiens, UniProt P15428).
T1 sequence (P15428 1-266): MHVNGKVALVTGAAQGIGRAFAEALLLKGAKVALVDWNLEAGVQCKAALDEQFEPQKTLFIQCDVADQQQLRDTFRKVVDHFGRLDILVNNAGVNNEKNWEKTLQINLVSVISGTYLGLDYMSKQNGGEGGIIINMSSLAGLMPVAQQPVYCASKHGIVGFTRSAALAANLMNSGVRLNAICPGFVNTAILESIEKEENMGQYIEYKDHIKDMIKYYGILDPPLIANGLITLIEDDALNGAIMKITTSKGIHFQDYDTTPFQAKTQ
Briefly: Inhibition of recombinant 15-PGDH enzymatic activity (NADH quantification after addition of PGE2 and NAD+). The format is biochemical. As to conditions: recombinant 15-PGDH; 15 min pre-incubation, 60-minute reaction, room temperature, pH 7.5; PGE2 and NAD+; read-out: PGDH-Lumi IC50. As to the method:
The compound dose-response of its inhibition of 15-PGDH activity was determined in human recombinant 15-PGDH enzymatical assays. These assays measured 15-PGDH enzymatic activity by quantifying the amount of NADH produced during a 60-minute reaction initiated by the addition of PGE2 and NAD+. Under the conditions of these experiments, the increase of NADH signal upon oxidation of PGE2 and reduction of NAD+ was linearly proportional to 15-PGDH enzymatic activity. The recombinant human, mouse, rat and dog 15-PGDH enzymatic assays were performed in a 25 μL volume of reaction buffer containing 50 mM Tris, pH 7.5, 0.01% Tween-20 and 100 μM DTT in a 384-well microtiter plate. In concentration-response experiments with tested compounds, 22 concentrations from 2-fold serial dilutions in DMSO were pre-incubated with 15-PGDH for 15 minutes at room temperature. Then, PGE2 and ß-NAD+ were added to initiate the 15-PGDH reaction. After 60 minutes at room temperature, the reaction was quenched and NADH signal was measured using a microtiter plate reader.
The following data (Table 11-1) provides the IC50 of each compound for inhibiting enzymatic activity of recombinant 15-PGDH in the assay described above.

As for `Cn1cc2cc(-c3cc(-c4ccnn4C)c4cc(C(=O)N5CCSCC5)sc4n3)cnc2n1` [Compound B14, (6-(2-methyl-2H-pyrazolo[3,4-b]pyridin-5-yl)-4-(1-methyl-1H-pyrazol-5-yl)thieno[2,3-b]pyridin-2-yl)(4-thiomorpholinyl)methanone], the IC50 stood at 0.519 nM.

Turning to `CN(C(=O)c1cc2c(C3CC3)cc(-c3cnc4nn(C)cc4c3)nc2s1)C1CCC1` [Compound B15, N-cyclobutyl-4-cyclopropyl-N-methyl-6-(2-methyl-2H-pyrazolo[3,4-b]pyridin-5-yl)thieno[2,3-b]pyridine-2-carboxamide], the IC50 came to 0.475 nM.

With `Cn1cc2cc(-c3cnc4sc(C(=O)N5CCCCC5)cc4c3)cnc2n1` [Compound B16, (5-(2-methyl-2H-pyrazolo[3,4-b]pyridin-5-yl)thieno[2,3-b]pyridin-2-yl)(1-piperidinyl)methanone], the IC50 is 9.51 nM.

As for `C[C@H]1COCCN1C(=O)c1cc2c(C3CC3)cc(-c3cnc4nn(C)cc4c3)nc2s1` [Compound B17S, (4-cyclopropyl-6-(2-methyl-2H-pyrazolo[3,4-b]pyridin-5-yl)thieno[2,3-b]pyridin-2-yl)((3S)-3-methyl-4-morpholinyl)methanone], the IC50 was found to be 1.17 nM.

Turning to `CC(C)(C)OC(=O)N1CCN(c2ncc(-c3cc(C4CC4)c4cc(C(=O)N5CCCCC5)sc4n3)cn2)CC1` [Compound B18, 2-methyl-2-propanyl 4-(5-(4-cyclopropyl-2-(1-piperidinylcarbonyl)thieno[2,3-b]pyridin-6-yl)-2-pyrimidinyl)-1-piperazinecarboxylate], the IC50 is 1.58 nM.

For `Cn1cc2cc(-c3cc(C4CC4)c4cc(C(=O)N5CCC(F)(F)CC5)sc4n3)cnc2n1` [Compound B19, (4-cyclopropyl-6-(2-methyl-2H-pyrazolo[3,4-b]pyridin-5-yl)thieno[2,3-b]pyridin-2-yl)(4,4-difluoro-1-piperidinyl)methanone], the IC50 came out at 0.853 nM.

For `Cn1cc2cc(-c3cc(C4CC4)c4cc(C(=O)N5CCC(C(F)(F)F)CC5)sc4n3)cnc2n1` [Compound B20, (4-cyclopropyl-6-(2-methyl-2H-pyrazolo[3,4-b]pyridin-5-yl)thieno[2,3-b]pyridin-2-yl)(4-(trifluoromethyl)-1-piperidinyl)methanone], the IC50 was determined as 1.11 nM.

With `Cn1cc2cc(-c3ccc4cc(C(=O)N5CCC(C(F)(F)F)CC5)sc4n3)cnc2n1` [Compound B21, (6-(2-methyl-2H-pyrazolo[3,4-b]pyridin-5-yl)thieno[2,3-b]pyridin-2-yl)(4-(trifluoromethyl)-1-piperidinyl)methanone], the IC50 was found to be 1.45 nM.

On to `O=C(c1cc2c(C3CC3)cc(-c3cnc(N4CCNCC4)nc3)nc2s1)N1CCCCC1` [Compound B22, (4-cyclopropyl-6-(2-(1-piperazinyl)-5-pyrimidinyl)thieno[2,3-b]pyridin-2-yl)(1-piperidinyl)methanone], for which the half-maximal inhibitory concentration (IC50) was 3.61 nM.

For `Cn1cc2cc(-c3cc(C4CC4)c4cc(C(=O)N5CCCCC5)sc4n3)cnc2n1` [Compound B23, (4-cyclopropyl-6-(2-methyl-2H-pyrazolo[3,4-b]pyridin-5-yl)thieno[2,3-b]pyridin-2-yl)(1-piperidinyl)methanone], the IC50 came out at 0.215 nM.

As to `Cn1cc2cc(-c3cc(C4CC4)c4cc(C(=O)N5CCCOCC5)sc4n3)cnc2n1` [Compound B24, (4-cyclopropyl-6-(2-methyl-2H-pyrazolo[3,4-b]pyridin-5-yl)thieno[2,3-b]pyridin-2-yl)(1,4-oxazepan-4-yl)methanone], the IC50 was determined as 0.428 nM.

With `Cn1cc2cc(-c3ccc4cc(C(=O)N5CCC(F)(F)CC5)sc4n3)cnc2n1` [Compound B25, (4,4-difluoro-1-piperidinyl)(6-(2-methyl-2H-pyrazolo[3,4-b]pyridin-5-yl)thieno[2,3-b]pyridin-2-yl)methanone], the IC50 amounted to 0.352 nM.

On to `CC1CC(F)(F)CCN1C(=O)c1cc2ccc(-c3cnc4nn(C)cc4c3)nc2s1` (stereo not shown) [Compound B27], for which the IC50 stood at 1.7 nM.

Consider `Cn1ccc2cc(-c3cnc4sc(C(=O)N5CCCCC5)cc4c3)ccc2c1=O` [Compound B28, 2-methyl-6-(2-(1-piperidinylcarbonyl)thieno[2,3-b]pyridin-5-yl)-1(2H)-isoquinolinone], for which the IC50 turned out to be 11.9 nM.

Turning to `Cn1cc2cc(-c3ccc4cc(C(=O)N5CCOCC5(C)C)sc4n3)cnc2n1` [Compound B29, (3,3-dimethyl-4-morpholinyl)(6-(2-methyl-2H-pyrazolo[3,4-b]pyridin-5-yl)thieno[2,3-b]pyridin-2-yl)methanone], the IC50 came to 83.6 nM.

Consider `Cn1cc2cc(-c3ccc4cc(C(=O)N5CCOCC5C#N)sc4n3)cnc2n1` (stereo not shown) [Compound B30, 4-((6-(2-methyl-2H-pyrazolo[3,4-b]pyridin-5-yl)thieno[2,3-b]pyridin-2-yl)carbonyl)-3-morpholinecarbonitrile], for which the IC50 was determined as 212 nM.

Turning to `CC1CN(C(=O)c2cc3ccc(-c4cnc5nn(C)cc5c4)nc3s2)CCO1` (stereo not shown) [Compound B31], the IC50 stood at 1.34 nM.

For `C[C@@H]1COCCN1C(=O)c1cc2ccc(-c3ccc(=O)n(C)c3)nc2s1` [Compound B32R, 1-methyl-5-(2-(((3R)-3-methyl-4-morpholinyl)carbonyl)thieno[2,3-b]pyridin-6-yl)-2(1H)-pyridinone], the IC50 turned out to be 1350 nM.

Regarding `C[C@H]1COCCN1C(=O)c1cc2ccc(-c3ccc(=O)n(C)c3)nc2s1` [Compound B32S, 1-methyl-5-(2-(((3S)-3-methyl-4-morpholinyl)carbonyl)thieno[2,3-b]pyridin-6-yl)-2(1H)-pyridinone], the IC50 was 623 nM.

Turning to `C[C@@H]1COCCN1C(=O)c1cc2ccc(-c3nccs3)nc2s1` [Compound B33R, ((3R)-3-methyl-4-morpholinyl)(6-(1,3-thiazol-2-yl)thieno[2,3-b]pyridin-2-yl)methanone], the IC50 amounted to 4400 nM.

`C[C@H]1COCCN1C(=O)c1cc2ccc(-c3nccs3)nc2s1` [Compound B33S, ((3S)-3-methyl-4-morpholinyl)(6-(1,3-thiazol-2-yl)thieno[2,3-b]pyridin-2-yl)methanone]: the IC50 came to 2650 nM.

Consider `C[C@H]1COCCN1C(=O)c1cc2ccc(-c3cc(=O)n(C)cn3)nc2s1` [Compound B34S, 3-methyl-6-(2-(((3S)-3-methyl-4-morpholinyl)carbonyl)thieno[2,3-b]pyridin-6-yl)-4(3H)-pyrimidinone], for which the IC50 was determined as 200 nM.

With `Cn1cc(-c2ccc3cc(C(=O)N4CCOCC4)sc3n2)ccc1=O` [Compound B35, 1-methyl-5-(2-(4-morpholinylcarbonyl)thieno[2,3-b]pyridin-6-yl)-2(1H)-pyridinone], the IC50 is 576 nM.

Consider `C[C@@H]1COCCN1C(=O)c1cc2ccc(-c3cc(=O)n(C)cn3)nc2s1` [Compound B36R, 3-methyl-6-(2-(((3R)-3-methyl-4-morpholinyl)carbonyl)thieno[2,3-b]pyridin-6-yl)-4(3H)-pyrimidinone], for which the IC50 was 311 nM.

Take `Cn1cc2cc(-c3ccc4cc(C(=O)N5CC6CCC(C5)O6)sc4n3)cnc2n1` [Compound B37, (6-(2-methyl-2H-pyrazolo[3,4-b]pyridin-5-yl)thieno[2,3-b]pyridin-2-yl)(8-oxa-3-azabicyclo[3.2.1]octan-3-yl)methanone]: the IC50 is 2.38 nM.

Take `O=C(c1cc2ccc(-c3nccs3)nc2s1)N1CCOCC1` [Compound B38, 4-morpholinyl(6-(1,3-thiazol-2-yl)thieno[2,3-b]pyridin-2-yl)methanone]: the IC50 is 1330 nM.

Take `Cn1cnc(-c2ccc3cc(C(=O)N4CCOCC4)sc3n2)cc1=O` [Compound B39, 3-methyl-6-(2-(4-morpholinylcarbonyl)thieno[2,3-b]pyridin-6-yl)-4(3H)-pyrimidinone]: the IC50 worked out at 128 nM.

For the molecule `Cn1cc2cc(-c3ccc4cc(C(=O)N5CCOC(C)(C)C5)sc4n3)cnc2n1` [Compound B40, (2,2-dimethyl-4-morpholinyl)(6-(2-methyl-2H-pyrazolo[3,4-b]pyridin-5-yl)thieno[2,3-b]pyridin-2-yl)methanone], the IC50 is 1.97 nM.

Turning to `O=C(c1cc2ccc(-c3ccc(=O)[nH]c3)nc2s1)N1CCOCC1` [Compound B41, 5-(2-(4-morpholinylcarbonyl)thieno[2,3-b]pyridin-6-yl)-2(1H)-pyridinone], the IC50 is 641 nM.

As for `Cn1nc2cc(-c3ccc4cc(C(=O)N5CCOCC5)sc4n3)cnc2n1` [Compound B42, (6-(2-methyl-2H-[1,2,3]triazolo[4,5-b]pyridin-6-yl)thieno[2,3-b]pyridin-2-yl)(4-morpholinyl)methanone], the IC50 was determined as 6.33 nM.

`C[C@@H]1COCCN1C(=O)c1cc2ccc(-c3cnc4nn(C)nc4c3)nc2s1` [Compound B43R, ((3R)-3-methyl-4-morpholinyl)(6-(2-methyl-2H-[1,2,3]triazolo[4,5-b]pyridin-6-yl)thieno[2,3-b]pyridin-2-yl)methanone]: the IC50 amounted to 40.3 nM.

Usually IC50 stands for the concentration that gives 50% inhibition.
